Measurements: patent EP0352817A2, “Monoclonal antibody to catecholamine metabolite and quantitative assay for catecholamine metabolite” (ORIENTAL YEAST CO., LTD., priority 1988, dated 1990)

Tested on: monoclonal antibody specific against catecholamine metabolites containing 3-methoxy, 4-hydroxy group therein
Assay: standard curves for fractionation and determination of ℓ-VMA and HVA in competitive EIA
Assay type: binding, BALB/c mice
Settings: pH 8.0, amount of less than 1 µM
Excerpt: Then, VMA-SBA adsorbed onto the solid phase by the action other than the covalent bond was washed with 0.1 N acetic acid containing 0.1% (w/v) SDS.

Row | SMILES | reaction in competitive EIA
1 | COc1cc(C(O)C(=O)O)ccc1O (single isomer, unassigned) [ℓ-VMA] | did not react
2 | COc1cc(C(O)C(=O)O)ccc1O (centres unmarked) [Vanillylmandelic acid] | reacted only
